Assay results from patent US7314937B2, “Non-imidazole aryl alkylamines compounds as histamine H3 receptor antagonists, preparation and therapeutic uses” (Eli Lilly and Company, priority 2002, dated 2008).
Where two headings read alike, the source gives them in different places.

How the values were obtained:
[1] = target: T1, H3R membranes (H3R8-expressing HEK293 cell line) (Homo sapiens, UniProt Q9Y5N1); assay: [35S]GTPγS binding assay (antagonist inhibition of agonist-stimulated binding); type: biochemical; settings: inhibition of [35S]GTPγS binding to H3R membranes in presence of agonist R(-) alpha methylhistamine
T1 construct: expressed in transfected cells; membranes
Procedure: Membranes isolated as described in Example 3 were used in a [^35S]GTPχS functional assay. Binding of [^35S]GTPχS to membranes indicates agonist activity. Compounds of the invention of Formula I were tested for their ability to inhibit binding in the presence of agonists. Alternately, the same transfected cell lines were used for a cAMP assay wherein H3R agonists inhibited forskolin-activated synthesis of cAMP. Compounds of Formula I were tested for their ability to permit forskolin-stimulated cAMP synthesis in the presence of agonist.
cDNA for the human histamine 3 receptor was cloned and expressed as described in Example 1, above. Transfected cells were selected using G418 (500 μ/ml), grown, and tested for histamine binding by the SPA described above. For total binding, cells were assayed in a SPA reaction described above containing 50 mM Tris-HCL (assay buffer), pH 7.6, 1 mg wheat germ agglutinin SPA beads (Amersham Pharmacia Biotech, #RPNQ0001), and 1 nM (^3H)-n-alpha-methylhistamine (NEN, NET1027) (total volume per well=200 μl). Thioperimide was added to determine non-specific binding. […]
Antagonist activity of selected compounds was tested for inhibition of [^35S] […] Plates were counted in Wallac Trilux 1450 Microbeta scintillation counter for 1 minute. […]

[2] = target: T2, human histamine 3 receptor (H3R) (Homo sapiens, UniProt Q9Y5N1); assay: Competitive inhibition SPA radioligand binding assay, H3R
T2 construct: expressed in transfected cells; membranes
Source text: The inventive compounds can readily be evaluated by using a competitive inhibition Scintillation Proximity Assay (SPA) based on a H3R binding assay using [3H] a methylhistamine as ligand. Stable cell lines, including but not limited to HEK can be transfected with cDNA coding for H3R to prepare membranes used for the binding assay. The technique is illustrated below (Example 3) for the histamine receptor subtypes.
C. Preparation of H3R Membranes
cDNA for the human histamine 3 receptor was cloned and expressed as described in Example 1, above. Transfected cells were selected using G418 ([…]), grown, and tested for histamine binding by the SPA described above. For total binding, cells were assayed in a SPA reaction described above containing 50 mM Tris-HCL (assay buffer), pH 7.6, 1 mg wheat germ agglutinin SPA beads (Amersham Pharmacia Biotech, #RPNQ0001), and 1 nM (^3H)-n-alpha-methylhistamine (NEN, NET1027) (total volume per well=200 μl). Thioperimide was added to determine non-specific binding. Several clones were selected as positive for binding, and a single clone (H3R8) was used to prepare membranes for binding studies described above. Five micrograms of protein was used per well in the SPA receptor-binding assay.
To investigate the selectivity of the antagonists for the histamine receptors, a competitive binding assay described above was performed. […]

[3] = target: T3, human GPRv53 receptor (H4R) (Homo sapiens, UniProt Q9H3N8); assay: Competitive binding assay, GPRv53 (H4R), [3H]histamine; settings: for inhibition of binding to H4R compared to H3R: in words; for Ki: selectivity study Table 2
T3 construct: expressed in transfected cells; host or cells: HEK293 GPRv53 50 cells; homogenised whole-cell lysates
Procedure: D. Preparation of GPRv53 Membranes
cDNA for the human GPRv53 receptor was cloned and expressed as described in Example 1, above. Transfected cells were selected, tested for histamine binding, and selected. HEK293 GPRv53 50 cells were grown to confluency in DMEM/F12 (Gibco) supplemented with 5% FBS and 500 ug/ml G418 and washed with Delbecco's PBS (Gibco) and harvested by scraping. Whole cells were homogenized with a Polytron tissuemizer in binding buffer, 50 mM Tris pH 7.5. Cell lysates, 50 ug, were incubated in 96 well dishes with 3 nM (3H) Histamine and compounds in binding buffer for 2 hours at room temperature. Lysates were filtered through glass fiber filters (Perkin Elmer) with a Tomtec cell harverster. Filters were counted with melt-on scintillator sheets (Perkin Elmer) in a Wallac Trilux 1450 Microbeta Scintillation counter for 5 minutes.
(§1) To investigate the selectivity of the antagonists for the histamine receptors, a competitive binding assay described above was performed. […] Until the present invention, most known H3R antagonists also bound H4R.

[4] = target: T4, human histamine 1 receptor (H1R) (Homo sapiens, UniProt P35367); assay: Competitive SPA binding assay, H1R, 3H-pyrilamine; settings: selectivity study Table 2
T4 construct: expressed in transfected cells; membranes
Procedure: A. Preparation H1R Membranes
cDNA for the human histamine 1 receptor (H1R) was cloned into a mammalian expression vector containing the CMV promoter (pcDNA3.1 (+), Invitogen) and transfected into HEK293 cells using the FuGENE Tranfection Reagent (Roche Diagnostics Corporation). Transfected cells were selected using G418 (500 μ/ml). Colonies that survived selection were grown and tested for histamine binding to cells grown in 96-well dishes using a scintillation proximity assay (SPA) based radioligand binding assay. Briefly, cells, representing individual selected clones, were grown as confluent monolayers in 96-well dishes (Costar Clear Bottom Plates, #3632) by seeding wells with 25,000 cells and growing for 48 hours (37° C., 5% CO2). Growth media was removed and wells were rinsed two times with PBS (minus Ca^2+ or Mg^2+). For total binding, cells were assayed in a SPA reaction containing 50 mM Tris-HCL (assay buffer), pH 7.6, 1 mg wheat germ agglutinin SPA beads (Amersham Pharmacia Biotech, #RPNQ0001), and 0.8 nM ^3H-pyrilamine (Net-594, NEN) (total volume per well=200 μl). Astemizole (10 μM, Sigma #A6424) was added to appropriate wells to determine non-specific binding. Plates were covered with FasCal and incubated at room temperature for 120 minutes. […] Plates were counted in a Wallac Trilux 1450 Microbeta scintillation counter. […]

[5] = target: T5, human histamine 2 receptor (Homo sapiens, UniProt P25021); assay: Competitive SPA binding assay, H2R, 3H-tiotidine; settings: selectivity study Table 2, read-out: Ki (nM) H2
T5 construct: expressed in transfected cells; membranes
Procedure: B. Preparation H2R Membranes
cDNA for the human histamine 2 receptor was cloned, expressed and transfected into HEK 293 cells as described above. Histamine binding to cells was assayed by SPA described above. For total binding, cells were assayed in a SPA reaction containing 50 mM Tris-HCl (assay buffer), pH 7.6, 1 mg wheat germ agglutinin SPA beads (Amersham Pharmacia Biotech, #RPNQ0001), and 6.2 nM ^3H-tiotidine (Net-688, NEN) (total volume per well=200 μl). Cimetidine (10 μM, Sigma #C4522) was added to appropriate wells to determine non-specific binding.
Several clones were selected as positive for binding, and a single clone (H2R10) was used to prepare membranes for binding studies. Five micrograms of protein was used per well in the SPA receptor-binding assay.
as §1

[6] = Rat pharmacokinetics, iv and po, LC/MS/MS; type: in vivo, Male Sprague Dawley Rats; settings: 10 mg/kg po; for oral bioavailability (AUC 0-24 hr; po/iv ratio): 3 mg/kg iv; for half-life: male, Sprague Dawley, read-out: oral half-life (±SEM) (converted)
Procedure: Non-imidazole containing histamine H3 receptor antagonists disclosed in the literature generally have very poor pharmacokinetic properties (see J. Apelt, et al, J. Med. Chem. 2002,45,1128-1141). […] Male Sprague Dawley Rats (n=3 per dose arm) were separately dosed with 3 mg/kg iv or 10 mg/kg po of compound examples 131 and 271 (vehicle: 5% ethanol/water or water respectively; dose volume: 1 mL/kg iv, 10 mL/kg po). Approximately 0.5 mL of blood was collected in heparin collection tubes at multiple time points over an 8 or 24-hour period for examples 131 and 271 respectively, and the samples were analyzed using LC/MS/MS.

T3 sequence (Q9H3N8 whole entry): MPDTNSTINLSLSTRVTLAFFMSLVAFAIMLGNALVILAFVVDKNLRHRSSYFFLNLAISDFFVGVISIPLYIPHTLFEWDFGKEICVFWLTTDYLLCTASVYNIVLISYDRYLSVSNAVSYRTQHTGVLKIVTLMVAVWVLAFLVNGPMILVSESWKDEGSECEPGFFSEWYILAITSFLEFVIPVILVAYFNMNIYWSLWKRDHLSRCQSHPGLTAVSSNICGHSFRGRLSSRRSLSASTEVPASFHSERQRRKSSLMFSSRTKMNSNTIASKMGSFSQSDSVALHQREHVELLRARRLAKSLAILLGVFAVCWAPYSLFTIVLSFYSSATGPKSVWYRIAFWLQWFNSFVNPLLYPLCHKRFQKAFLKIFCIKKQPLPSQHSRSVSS
T4 sequence (P35367 whole entry): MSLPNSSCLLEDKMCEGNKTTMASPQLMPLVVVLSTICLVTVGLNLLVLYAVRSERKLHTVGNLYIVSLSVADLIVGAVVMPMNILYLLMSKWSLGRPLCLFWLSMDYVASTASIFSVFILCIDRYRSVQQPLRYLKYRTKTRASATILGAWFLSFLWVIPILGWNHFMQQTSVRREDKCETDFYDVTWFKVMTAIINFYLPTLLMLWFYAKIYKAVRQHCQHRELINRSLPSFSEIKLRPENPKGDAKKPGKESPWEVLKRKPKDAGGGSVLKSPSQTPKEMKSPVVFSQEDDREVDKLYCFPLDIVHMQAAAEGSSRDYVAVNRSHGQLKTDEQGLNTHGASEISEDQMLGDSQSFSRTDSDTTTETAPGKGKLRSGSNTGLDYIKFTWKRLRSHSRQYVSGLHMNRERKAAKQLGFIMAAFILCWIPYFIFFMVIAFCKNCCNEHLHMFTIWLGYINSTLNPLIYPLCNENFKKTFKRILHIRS
T5 sequence (P25021 whole entry): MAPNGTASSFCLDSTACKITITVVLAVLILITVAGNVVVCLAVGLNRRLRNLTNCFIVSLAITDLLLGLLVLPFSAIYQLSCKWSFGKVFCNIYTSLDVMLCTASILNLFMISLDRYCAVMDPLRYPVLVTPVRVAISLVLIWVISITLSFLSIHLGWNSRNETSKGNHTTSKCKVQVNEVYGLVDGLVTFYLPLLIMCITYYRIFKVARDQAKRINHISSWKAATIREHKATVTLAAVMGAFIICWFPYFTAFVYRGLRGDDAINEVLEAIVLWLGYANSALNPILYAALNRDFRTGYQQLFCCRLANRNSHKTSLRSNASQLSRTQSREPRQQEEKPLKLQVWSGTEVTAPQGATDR
T2 sequence (Q9Y5N1 whole entry): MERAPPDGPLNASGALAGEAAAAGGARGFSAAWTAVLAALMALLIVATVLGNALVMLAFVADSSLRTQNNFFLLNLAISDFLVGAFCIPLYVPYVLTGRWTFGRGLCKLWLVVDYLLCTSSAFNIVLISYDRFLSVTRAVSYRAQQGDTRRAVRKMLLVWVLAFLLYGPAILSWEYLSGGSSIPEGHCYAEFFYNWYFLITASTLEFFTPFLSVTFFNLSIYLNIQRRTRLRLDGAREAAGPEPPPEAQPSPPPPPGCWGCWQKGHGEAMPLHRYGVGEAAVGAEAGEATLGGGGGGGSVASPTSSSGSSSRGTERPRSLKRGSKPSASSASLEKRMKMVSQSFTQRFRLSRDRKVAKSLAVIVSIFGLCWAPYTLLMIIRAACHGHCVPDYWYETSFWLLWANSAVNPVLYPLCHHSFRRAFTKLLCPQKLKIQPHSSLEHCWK
T1 sequence (Q9Y5N1 whole entry): as above

**Q.** Which Ki [1] does the source give for CCN(CC)CCCOc1ccc(C(C)N(C)CCN(C)C)cc1 (stereo not drawn) [Example 1] here?
**A.** 1.4 nM

**Q.** For O=C(c1ccc(OCCN2CCCCC2)cc1)N1CCC[C@H]1CN1CCCC1 [Example 131], which Ki ([2]; competitive binding, selectivity study Table 2, read-out: Ki (nM) H3R) is on record?
**A.** 1.05 nM

**Q.** And the “inhibition of binding to H4R compared to H3R” value [3]?
**A.** did not inhibit binding H4R

**Q.** What about the Ki [3] of the same molecule?
**A.** ≥ 20000 nM

**Q.** And the Ki [4]?
**A.** ≥ 20000 nM

**Q.** And the Ki [5]?
**A.** ≥ 20000 nM

**Q.** What about the “oral bioavailability (AUC 0-24 hr; po/iv ratio)” value [6] of the same molecule?
**A.** 58%

**Q.** What about the half-life ([6]; blood) of the same molecule?
**A.** 10.4 ± 4.2 h

**Q.** What does the source list for CCN1CCc2cc(OCCCN3CCCCC3)ccc2C1.Cl.Cl [Example 250, 2-Ethyl-6-(3-piperidin-1-yl-propoxy)-1,2,3,4-tetrahydro-isoquinoline dihydrochloride]?
**A.** Ki [2]: 0.37 nM; inhibition of binding to H4R compared to H3R [3]: did not inhibit binding H4R; Ki [3]: ≥ 20000 nM; Ki [4]: 1020 nM; Ki [5]: 1110 nM

**Q.** Which “oral bioavailability (AUC 0-24 hr; po/iv ratio)” value [6] does the source give for CCN1CCc2ccc(OCCCN3CCCCC3)cc2C1.Cl.Cl [Example 271, 2-Ethyl-7-(3-Piperidin-1-yl-propoxy)-1,2,3,4-tetrahydro-isoquinoline dihydrochloride] here?
**A.** 69%

**Q.** What about the half-life ([6]; in vivo) of the same molecule?
**A.** 71.9 ± 3.3 h
